Assay type in all cases: functional
For one test, the system named is Mycobacterium avium. Kind of test: Minimum inhibitory concentration against Mycobacterium avium ATCC 49601.
In test [1] the test system is Mycobacterium tuberculosis. Kind of test: Minimum inhibitory concentration against Mycobacterium tuberculosis H37Rv ATCC 27294.
The subject of test [2] is Mycobacterium tuberculosis. The test can be described thus: Minimum inhibitory concentration against Mycobacterium tuberculosis sensitive clinical isolates.
In test [3] the test system is Mycobacterium intracellulare. Kind of test: Minimum inhibitory concentration against Mycobacterium intracellular ATCC 13950.
The subject of test [4] is Mycobacterium tuberculosis. The test can be described thus: Minimum inhibitory concentration against Mycobacterium tuberculosis sensitive clinical isolates; Range: 1-4 ug/ml.
Test [5] relates to Mycobacterium tuberculosis. Kind of test: Minimum inhibitory concentration against Mycobacterium tuberculosis sensitive clinical isolates; Range:4-16 ug/ml.
Test [6] concerns Mycobacterium tuberculosis. The test can be described thus: Minimum inhibitory concentration against Mycobacterium tuberculosis sensitive clinical isolates; Range: 0.125-0.25 ug/ml.

In brackets after ≈: the same amount, converted by molar mass.

For orientation: MIC means the least concentration at which growth counts as inhibited. The low end stands for a more susceptible organism, the high end for a less susceptible organism.

Take `CC1=C(OCCCCCBr)C(C)SC1=O` (stereo not given): the MIC (against Mycobacterium avium; in test [1]; in test [2]; in test [3]) was more than 16 µg/mL throughout.
Turning to `CC1=C(OCCCCCCN2CCOCC2)C(C)SC1=O` (stereo not given), the MIC (with Mycobacterium avium; in test [1]; in test [2]; in test [3]) was more than 16 µg/mL throughout.
`CC1=C(OCCCN2CCN(C)CC2)C(C)SC1=O` (stereo not given): the MIC (with Mycobacterium avium; in test [1]; in test [2]; in test [3]) was more than 16 µg/mL each time.
As for `CC1=C(OCCCCCCCCBr)C(C)SC1=O` (stereo not given), the minimal inhibitory concentration (MIC) (in the test with Mycobacterium avium; in test [1]; in test [2]; in test [3]) was more than 16 µg/mL each time.
For the compound `CC1=C(OCCCCCN2CCN(C)CC2)C(C)SC1=O` (stereo not given), the MIC (in the test with Mycobacterium avium; in test [1]; in test [2]; in test [3]) was more than 16 µg/mL each time.
Consider `CC1=C(OCCCCCCCCN2CCN(C)CC2)C(C)SC1=O` (stereo not given), for which the MIC (against Mycobacterium avium; in test [1]; in test [2]; in test [3]) was more than 16 µg/mL throughout.
For the compound `CC1=C(OCCCCCCBr)C(C)SC1=O` (stereo not given), the minimal inhibitory concentration (MIC) (against Mycobacterium avium; in test [1]; in test [2]; in test [3]) was more than 16 µg/mL throughout.
Consider `COC(=O)CSCCCCCOC1=C(C)C(=O)SC1C` (stereo not given), for which the minimal inhibitory concentration (MIC) (in the test with Mycobacterium avium; in test [1]; in test [2]; in test [3]) was more than 16 µg/mL each time.
Regarding `CC1=C(OCCCCBr)C(C)SC1=O` (stereo not given), the MIC (against Mycobacterium avium; in test [1]; in test [2]; in test [3]) was more than 16 µg/mL each time.
In the case of `COC(=O)CSCCCCCCCCOC1=C(C)C(=O)SC1C` (stereo not given), the MIC amounted to 8 µg/mL (≈ 22.2 µM) in the test on Mycobacterium avium, 1 µg/mL (≈ 2.77 µM) in test [1], 4 µg/mL (≈ 11.1 µM) in test [4] and 4 µg/mL (≈ 11.1 µM) in test [3].
As for `CC1=C(OCCCCCCCCCCBr)C(C)SC1=O` (stereo not given), the MIC against Mycobacterium avium was more than 16 µg/mL; in test [1], 4 µg/mL (≈ 11 µM); in test [3], more than 16 µg/mL; in test [5], 16 µg/mL (≈ 44 µM).
As to `CC1=C(OCCCCCCCCCCN2CCN(C)CC2)C(C)SC1=O` (stereo not given), the MIC (against Mycobacterium avium; in test [1]; in test [2]; in test [3]) was more than 16 µg/mL in each case.
For `CC1=C(OCCCCCCN2CCN(C)CC2)C(C)SC1=O` (stereo not given), the MIC (in the test on Mycobacterium avium; in test [1]; in test [2]; in test [3]) was more than 16 µg/mL each time.
For `CC1=C(OCCCN2CCOCC2)C(C)SC1=O` (stereo not given), the MIC (with Mycobacterium avium; in test [1]; in test [2]; in test [3]) was more than 16 µg/mL throughout.
For the compound `CC1=C(OCCCCCCCCCCN2CCOCC2)C(C)SC1=O` (stereo not given), the MIC (with Mycobacterium avium; in test [1]; in test [2]; in test [3]) was more than 16 µg/mL in each case.
On to `CC1=C(OCCCCCCCCN2CCOCC2)C(C)SC1=O` (stereo not given), for which the minimum inhibitory concentration (MIC) (in the test on Mycobacterium avium; in test [1]; in test [2]; in test [3]) was more than 16 µg/mL each time.
With `CC1=C(OCCCCCN2CCOCC2)C(C)SC1=O` (stereo not given), the MIC (in the test with Mycobacterium avium; in test [1]; in test [2]; in test [3]) was more than 16 µg/mL each time.
`COC(=O)CSCCCCCCCCCCOC1=C(C)C(=O)SC1C` (stereo not given): the MIC (against Mycobacterium avium; in test [1]; in test [2]; in test [3]) was more than 16 µg/mL each time.
As for `COC(=O)CSCCCCOC1=C(C)C(=O)SC1C` (stereo not given), the MIC (against Mycobacterium avium; in test [1]; in test [2]; in test [3]) was more than 16 µg/mL in each case.
Take `NNC(=O)c1ccncc1` [ISONIAZID]: the MIC in the test with Mycobacterium avium was more than 16 µg/mL; in test [1], 0.25 µg/mL (≈ 1.82 µM); in test [3], 8 µg/mL (≈ 58.3 µM); in test [6], 0.25 µg/mL (≈ 1.82 µM).
Turning to `CC1=C(OCCCBr)C(C)SC1=O` (stereo not given), the MIC (in the test on Mycobacterium avium; in test [1]; in test [2]; in test [3]) was more than 16 µg/mL throughout.
As for `CC1=C(OCCCCN2CCN(C)CC2)C(C)SC1=O` (stereo not given), the MIC (against Mycobacterium avium; in test [1]; in test [2]; in test [3]) was more than 16 µg/mL in each case.
Regarding `CC1=C(OCCCCN2CCOCC2)C(C)SC1=O` (stereo not given), the MIC (in the test with Mycobacterium avium; in test [1]; in test [2]; in test [3]) was more than 16 µg/mL in each case.
On to `COC(=O)CSCCCCCCOC1=C(C)C(=O)SC1C` (stereo not given), for which the minimal inhibitory concentration (MIC) (in the test with Mycobacterium avium; in test [1]; in test [2]; in test [3]) was more than 16 µg/mL throughout.
Regarding `COC(=O)CSCCCOC1=C(C)C(=O)SC1C` (stereo not given), the MIC (with Mycobacterium avium; in test [1]; in test [2]; in test [3]) was more than 16 µg/mL in each case.

The values above are taken from ChEMBL document CHEMBL1143512, “Antitubercular agents. Part 2: new thiolactomycin analogues active against Mycobacterium tuberculosis” (2005).
